Experimental data from patent US20220152100A1, “METHODS FOR CONTROLLED ACTIVATION OR ELIMINATION OF THERAPEUTIC CELLS” (Bellicum Pharmaceuticals, Inc., priority 2014, published 2022).

Legend:
[1] = system: 293 cells; assay: SEAP assay: iMC.FRBL / iMC.FRBL2 plus Caspase-9; assay type: cell-based, human; details: Caspase-9 with iMC.FRBL or iMC.FRBL2 and anti-HER2 CAR
Procedure: HEK-293 cells were transfected with 1 μg of SRα-SEAP constitutive reporter plasmid along with either negative (Neg) control, eGFP (pBP0047), CaspaCIDe (iC9/pBP0044) alone, or CaspaCIDe along with iMC.FRBL (pBP0655)+anti-HER2.CAR.Fpk2 (pBP0488) or iMC.FRBL2 (pBP0498)+anti-HER2.CAR.Fpk2. Cells were then plated with half-log dilutions of rimiducid or rapamycin and assayed for SEAP as previously described. Diminution of SEAP activity correlates with cell elimination. Schematic represents one possible rapamycin-mediated complex of signaling domains, which lead to Caspase-9 clustering and apoptosis.
To determine if multimers of FRB would still act as a recruitment scaffold to enable rapalog-mediated Caspase-9 dimerization when attached to another signaling domain, 1 or 2 FRBL domains were fused to the potent chimeric stimulatory molecule, MyD88/CD40, to derive iMC.FRBL (pBP0655) and iMC.FRBL2 (pBP0498), respectively (FIG. 9B). As an initial test, 293 cells were transiently transfected with reporter plasmid SRα-SEAP, Caspase-9, a 1st generation anti-HER2 CAR (pBP0488) and (pBP0655 or pBP0498) (FIG. 15). Control transfections contained Caspase-9 (pBP0044) alone or eGFP expression vector (pBP0047). […] Thus, heterodimerizer-mediated activation of Caspase-9 is possible in cells containing multimers of FRBL fused to distinct proteins, such as MyD88/CD40.

[2] = system: 293 cells; assay: SEAP assay: FRBl2-tagged CAR plus iCaspase-9, two-tiered apoptosis; assay type: cell-based, human; details: iCaspase-9, overnight
Excerpt: FIGS. 6A and 6B provide the results of an assay of two-tiered activation of apoptosis.
As a proof of principal, two tandem FRBl domains were fused to either a 1st generation Her2-CAR or to a 1st generation CD19-CAR co-expressing inducible Caspase-9. 293 cells were transiently transfected with a constitutive reporter plasmid, SRα-SEAP, along with normalized levels of expression plasmids encoding Her2-CAR-FRBl2, iCaspase-9, Her2-CAR-FRBl2+iCasp9, iC9-CAR(19).FRBl2 (coexpressing both CD19-CAR-FRBl2 and iCaspase9), or control vector. […] After overnight incubation with drugs, SEAP activity was determined. […] This dose-dependent decrease required the presence of both the FRB-tagged CAR and the FKBP-tagged Caspase-9. […] Moreover, on- or off-target-mediated CAR clustering should increase the sensitivity of killing primarily at the site of scFv engagement.

[3] = system: 293 cells; assay: SEAP assay: iMC (tandem FKBP) plus FRBL2-Caspase-9; assay type: cell-based, human; details: tandem FKBPs (iMC) present
Procedure: FIGS. 16A and 16B are line graphs showing that tandem FKBP scaffold mediates FRBL2. Caspase activation in the presence of rapalogs. FIG. 16A. HEK-293 cells were transfected with 1 μg each of SRα-SEAP reporter plasmid, Δmyr.iMC.2A-anti-CD19.CAR.CD3 (pBP0608), and FRBL2. Caspase-9 (pBP0467). […] After ON incubation, cell supernatants were assayed for SEAP activity, as previously described. FIG. 16B. Similar to the experiment described in (FIG. 16A), except that cells were transfected with a membrane-localized (myristoylated) iMC.2A-CD19.CAR.CD3ζ (pBP0609), instead of non-myristoylated Amyr.iMC.2A-CD19.CAR.CD3ζ (pBP0608).
In a second test for rapalog-mediated scaffold-based activation of Caspase-9, 293 cells were transiently transfected with SRα-SEAP reporter plasmid, plus myristoylated or non-myristoylated inducible iMC co-expressed with 1st generation anti-CD19 CAR, plus FRBL2-fused Caspase-9 (plasmid pBP0467) (FIG. 16). […] Thus, rapamcyin and analogs can activate Caspase-9 via a molecular scaffold comprised of FRB or FKBP12 domains.

[4] = system: CD3+ΔCD19+ cells; assay: CASPALLO phase 1 clinical trial: AP1903 in patients with GvHD after iCasp9+ T cells; details: within 24 hours
[5] = system: 293T cells; assay: SeAP reporter assay: FRBL-Caspase9 plus FKBPv12-Caspase9 heterodimerization; assay type: cell-based, human
Procedure: HEK 293T cells (5×10^5) were seeded on a 100-mm tissue culture dish in 10 mL DMEM4500, supplemented with glutamine, penicillin/streptomycin and 10% fetal calf serum. After 16-30 hours incubation, cells were transfected using Novagen's GeneJuice® protocol. Briefly, for each transfection, 0.5 mL OptiMEM was pipeted into a 1.5-mL microcentrifuge tube and 15 μL GeneJuice reagent added followed by 5 sec. vortexing. Samples were rested 5 minutes to settle the GeneJuice suspension. DNA (5 μg total) was added to each tube and mixed by pipetting up and down four times. Samples were allowed to rest for 5 minutes for GeneJuice-DNA complex formation and the suspension added dropwise to one dish of 293T cells. A typical transfection contains 1 μg SRα-SEAP (pBP0046) (3), 2 μg FRB-Caspase-9 (pBP0463) and 2 μg FKBPv12-Caspase-9 (pBP0044) (7).
24 hours following transfection (4.1), 293T cells were split to 96-well plates and incubated with dilutions of dimerizing drugs. Briefly, 100 μL media was added to each well of a 96-well flat-bottom plate. Drugs were diluted in tubes to a concentration 4× the top concentration in the gradient to be place on the plate. […] 100 μL from each drug-containing well was then transferred to the adjacent well and the cycle repeated 10 times to produce a serial two-fold step gradient. The last wells were untreated and serve as a control for basal reporter activity. […]
24 hours after drug stimulation, 96-well plates were wrapped to prevent evaporation and incubated at 65®C for 2 hours to inactivate endogenous and serum phosphatases while the heat-stable SeAP reporter remains (1, 4, 12). […] Phosphatase activity was measured by fluorescence with excitation at 355 nm and emission at 460 nm. […]
FIG. 37—Drug induced programmed cell death by homodimerization or heterodimerization of tagged caspase 9. […] Reporter activity is expressed as a percentage of the average of 8 control wells containing no drug. […]
FIG. 38—Rapalog-induced cell death switch. […] Reporter activity is expressed as a percentage of the average of 8 wells containing no drug. […]

CC[C@H](C(=O)N1CCCC[C@H]1C(=O)O[C@H](CCc1ccc(OC)c(OC)c1)c1cccc(OCC(=O)NCCNC(=O)COc2cccc([C@@H](CCc3ccc(OC)c(OC)c3)OC(=O)[C@@H]3CCCCN3C(=O)[C@@H](CC)c3cc(OC)c(OC)c(OC)c3)c2)c1)c1cc(OC)c(OC)c(OC)c1 (relative stereo) [AP1903, 2-Piperidinecarboxylic acid, 1-[(2S)-1-oxo-2-(3,4,5-trimethoxyphenyl)butyl]-, 1,2-ethanedilbis[imino(2-oxo-2,1-ethanediyl)oxy-3,1-phenyleneR1R)-3-(3,4-dimethoxyphenyl)propylidene]] ester, [2S-[1(R*),2R*[S*[S*[1(R*),2R*]]]]]-(9CI)]
SEAP reduction / cell killing [1]: killed by Caspase-9 homodimerization | SEAP activity, of normal levels [2]: about 20% | activation of FRBL2-Caspase-9 [3]: not activated | further reduction of CD3+ΔCD19+ cells [4]: further log reduction | cell death (loss of SeAP reporter) ([5]; FKBPv12-Caspase-9 with control vector or FRB without caspase fusion): effectively permitted homodimerization and induction of Caspase-9 | cell death (loss of SeAP reporter) ([5]; FRBL-Caspase9 plus FKBPv12-Caspase9): dose-dependent homodimerization of only FKBP12-Caspase9, leading to dimerization and activation of apoptosis
